From PMC12332667, “Role of Structural Modifications in Peptidomimetic Compounds as Potential Antimicrobial Agents against Staphylococcus aureus and Streptococcus pyogenes: Balancing Bioavailability, Safety, and Antimicrobial Activity” (ACS Omega, 2025)
≈ marks a conversion by molar mass, not a printed value. Where “and” joins values, the source holds several entries; their conditions need not be identical. Identical values can stand only once.

Assays:
S. aureus ATCC 43300 = test: MIC/MBC broth microdilution, S. aureus; format: cell-based, Staphylococcus aureus; settings: for MBC / MIC: S. aureus
S. pyogenes ATCC 19615 = test: MIC/MBC broth microdilution, S. pyogenes; format: cell-based, Streptococcus pyogenes; settings: S. pyogenes
In short: (§1)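 Bacteria inoculated at about 10^5 CFU/mL in BHI broth and incubated 18 h at 37 °C with serial dilutions of peptidomimetics, NCCLS microdilution format. MBC taken as lowest concentration leaving no more than 3 colonies (≥99.9% kill); MIC as lowest concentration without obvious growth (≥90% of untreated); solvent controls included.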

E. faecalis c.i. = test: MIC/MBC broth microdilution, E. faecalis; format: cell-based, Enterococcus faecalis
In short: as §1

S. schleiferi c.i. = test: MIC/MBC broth microdilution, S. schleiferi; format: cell-based, Staphylococcus schleiferi
In short: as §1

S. intemrdius c.i. = test: MIC/MBC broth microdilution, S. intermedius; format: cell-based, Staphylococcus intermedius
Protocol: S. aureus (ATCC 29213),S. pyogenes (ATCC 19615),Streptococcus agalactiae (ATCC 27956),Escherichia coli (ATCC 25922),Proteus vulgaris (ATCC 6896),K. pneumoniae (ATCC 700603) andP. aeruginosa (ATCC 10145) reference strains, as well asStaphylococcus cohnii, Enterococcus faecalis, Staphylococcus schleiferi, Staphylococcus intermedius and Streptococcus mutans clinical isolates, were used to test the antibacterial activity of the peptidomimetics. Bacteria were aerobically cultured for 18 h at 37 °C in plates with sterilized brain heart infusion (BHI) broth (Sigma-Aldrich, USA) media mixed with bacteriological agar (Sigma-Aldrich, USA) using the streak plate method. After 18 h, BHI broth was inoculated to 0.5 on the McFarland scale and diluted to approximately 10^5 CFU/mL. To achieve a final stock concentration of 1024 μg/mL, the peptidomimetics were dissolved in sterile water, and 5–10% of absolute ethanol or dimethyl sulfoxide (DMSO) was added. The antibacterial activities were determined by using the standard broth microdilution method of the National Committee for Clinical Laboratory Standards. The process involved adding serially diluted peptidomimetics to consecutive wells of a 96-well microtiter plate (Brand, Germany) holding media with microorganisms. The inoculated plates treated with peptides were then placed in an incubator at 37 °C for 18 h. The MIC value was determined as the lowest concentration of peptidomimetic at which there was no obvious growth (equal or more than 90% of the untreated sample). […] The lowest concentration yielding growth in no more than 3 colonies, corresponding to at least a 99.9% kill rate, was taken as MBC. Each biological replicate included control wells with the addition of water, DMSO, and ethanol as respective solvent controls. All experiments were conducted with consistent adherence to growth and sterility controls and were performed at least in technical triplicate with three biological repeats.

S. mutans c.i. = test: MIC/MBC broth microdilution, S. mutans; format: cell-based, Streptococcus mutans
In short: as §1

E. coli ATCC 25922 = test: MIC/MBC broth microdilution, E. coli; format: cell-based, Escherichia coli
In short: as §1

P. vulgaris ATCC 6896 = test: MIC/MBC broth microdilution, P. vulgaris; format: cell-based, Proteus vulgaris
In short: as §1

[1] = test system: K. pneumoniae ATCC 700603; test: MIC/MBC broth microdilution, K. pneumoniae; format: cell-based
In short: as §1

P. aeruginosa ATCC 10145 = test: MIC/MBC broth microdilution, P. aeruginosa; format: cell-based
In short: as §1

[2] = Hydrophobicity by reverse-phase chromatography; format: physicochemical; settings: acetonitrile content in the mobile phase at the retention time
From the text: Reverse-phase chromatography was employed to assess the hydrophobicity characteristics of the peptidomimetics. Hydrophobicity was quantified by determining the acetonitrile content in the mobile phase at the retention time of a peptidyl derivative (Table S2). The least hydrophobic compound (40% acetonitrile) was A-198, which aligns with the calculations of hydrophobicity by SwissADME and pkCSM (Table ). Next in the hydrophobicity sequence were A-197, A-220, A-219, A-174, and A-221, eluting with 42.5-43.9% of acetonitrile. Then there were followed by […], and A-179, with the acetonitrile percentage of 44.8-49.8. The compounds A-176, A-20, A-152, A-134, and A-210 needed over 50% of acetonitrile to be eluted from the column.

fibroblasts (46BR.1N) = test: LDH cytotoxicity test, fibroblasts; format: cell-based; settings: 48 h, 50-150 μg/mL
In short: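 Cytotoxicity as LDH release after 48 h serum-free treatment (50, 100, 150 μg/mL peptidomimetics) of 46BR.1N fibroblasts or HaCaT keratinocytes seeded at 5000 per well. Absorbance 450 nm; untreated set as 0% and Triton X-100 1% as maximal release; Mann–Whitney U test, p ≤ 0.05.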

[3] = test system: immortalized human HaCaT keratinocytes; test: XTT cell proliferation assay, keratinocytes; format: cell-based; settings: XTT
In short: (§2)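 Proliferation was read as XTT absorbance at 490 nm after 4 h of reagent incubation, following 48 or 72 h of peptide exposure in serum-free HG-DMEM (37 °C, 5% CO2). The 72 h arm included a half-medium change with second peptide dose at 48 h. Significance by Mann–Whitney U, p ≤ 0.05.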

[4] = test system: human dermal fibroblast cell line (46BR.1N); test: XTT cell proliferation assay, fibroblasts; format: cell-based; settings: XTT
In short: as §2

## CC(C)[C@@H](CNC(=O)C(=Cc1ccccc1)c1ccccc1)NC(=O)[C@H](CCCNC(=N)N)NC(=O)[C@H](CCCCN)NC(=O)OCc1ccccc1 [Compound A-191]
S. aureus ATCC 43300; H2O
  MBC: 32 µg/mL (≈ 44 µM)
  MIC: 32 µg/mL (≈ 44 µM)
S. aureus ATCC 43300; water additive DMSO
  MBC: 32 µg/mL (≈ 44 µM)
  MIC: 16 µg/mL (≈ 22 µM)
S. aureus ATCC 43300; water additive EtOH
  MBC: 32 µg/mL (≈ 44 µM)
  MIC: 16 µg/mL (≈ 22 µM)
S. aureus ATCC 43300; additive not stated
  MIC value for S. aureus: 16 µg/mL
S. pyogenes ATCC 19615; H2O
  MBC: 4 µg/mL (≈ 5.5 µM)
  MIC: 4 µg/mL (≈ 5.5 µM)
S. pyogenes ATCC 19615; water additive DMSO
  MBC: 8 µg/mL (≈ 11 µM)
  MIC: 4 µg/mL (≈ 5.5 µM)
S. pyogenes ATCC 19615; water additive EtOH
  MBC: 8 µg/mL (≈ 11 µM)
  MIC: 4 µg/mL (≈ 5.5 µM)
E. faecalis c.i.; H2O
  MBC: > 512 µg/mL
  MIC: 512 µg/mL (≈ 704 µM)
E. faecalis c.i.; water additive DMSO
  MBC: > 512 µg/mL
  MIC: 512 µg/mL (≈ 704 µM)
E. faecalis c.i.; water additive EtOH
  MIC: > 512 µg/mL
S. schleiferi c.i.; H2O
  MBC: 32 µg/mL (≈ 44 µM)
  MIC: 8 µg/mL (≈ 11 µM)
S. schleiferi c.i.; water additive DMSO
  MBC: 32 µg/mL (≈ 44 µM)
  MIC: 8 µg/mL (≈ 11 µM)
S. schleiferi c.i.; water additive EtOH
  MBC: 32 µg/mL (≈ 44 µM)
  MIC: 8 µg/mL (≈ 11 µM)
S. intemrdius c.i.; H2O
  MIC: 32 µg/mL (≈ 44 µM)
S. intemrdius c.i.; water additive DMSO
  MIC: 32 µg/mL (≈ 44 µM)
S. intemrdius c.i.; water additive EtOH
  MIC: 32 µg/mL (≈ 44 µM)
S. mutans c.i.; water additive DMSO
  MIC: 32 µg/mL (≈ 44 µM)
S. mutans c.i.; water additive EtOH
  MIC: 32 µg/mL (≈ 44 µM)
E. coli ATCC 25922; H2O
  MBC: > 512 µg/mL
  MIC: 512 µg/mL (≈ 704 µM)
E. coli ATCC 25922; water additive DMSO
  MBC: > 512 µg/mL
  MIC: 512 µg/mL (≈ 704 µM)
E. coli ATCC 25922; water additive EtOH
  MBC: > 512 µg/mL
  MIC: 512 µg/mL (≈ 704 µM)
P. vulgaris ATCC 6896; H2O
  MBC: > 512 µg/mL
  MIC: 512 µg/mL (≈ 704 µM)
P. vulgaris ATCC 6896; water additive DMSO
  MIC: > 512 µg/mL
P. vulgaris ATCC 6896; water additive EtOH
  MBC: > 512 µg/mL
  MIC: 512 µg/mL (≈ 704 µM)
[1]; H2O
  MIC: > 512 µg/mL
[1]; water additive DMSO
  MIC: > 512 µg/mL
[1]; water additive EtOH
  MBC: > 512 µg/mL
  MIC: 512 µg/mL (≈ 704 µM)
P. aeruginosa ATCC 10145; H2O
  MBC: 256 µg/mL (≈ 352 µM)
P. aeruginosa ATCC 10145; water additive DMSO
  MBC: 256 µg/mL (≈ 352 µM)
[2]
  % AcCN (acetonitrile required for elution from the column): 44.8% and 44.8–49.8%
Fibroblasts (46BR.1N)
  cytotoxicity (LDH), in words: high cytotoxic effect only to fibroblasts at the highest tested concentration
[3]
  proliferation relative to control at 100 and 150 μg/mL: ≤ 20%
[3]; 48 and 72 h, 0.01–150 μg/mL
  effect on proliferation, in words: negative impact
[4]
  proliferation relative to control at 100 and 150 μg/mL: ≤ 20%
[4]; 48 and 72 h, 0.01–150 μg/mL
  effect on proliferation, in words: negative impact
